Laboratory results reported in patent US5440016A, “Peptides of the formula (KFmoc) ZZZ and their uses” (priority 1993, dated 1995).
In brackets after ≈: the same amount, converted by molar mass. Square brackets hold non-standard residues; d marks the D form. Ends that are not written are not given here. Peptide text beside a SMILES is read from it. * marks the point of attachment. Fmoc = O=C(OCC1c2ccccc2-c2ccccc21)*

The compounds below were run against melittin (Apis mellifera, UniProt P01501) (assay: cell-based). Conditions: read-out: IC50, inhibition of melittin (converted).
Chain of melittin (P01501 44-69 limits assumed): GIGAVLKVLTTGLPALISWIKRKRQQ
With Ac-IVIFFY-NH2 [Ac-IVIFFY-NH2] the IC50 was 24.9 µM.
Ac-IVILLA-NH2 [Ac-IVILLA-NH2] was tested, and the IC50 was 22 µM.
With Ac-IVILLC-NH2 [Ac-IVILLC-NH2] the IC50 was greater than 350 µM.
With Ac-IVILLD-NH2 [Ac-IVILLD-NH2] the IC50 was 24.8 µM.
In the case of Ac-IVILLE-NH2 [Ac-IVILLE-NH2], the IC50 is reported as 10.8 µM.
For Ac-IVILLF-NH2 [Ac-IVILLF-NH2], the IC50 was 27.7 µM.
For Ac-IVILLG-NH2 [Ac-IVILLG-NH2], the IC50 was 25.5 µM.
Ac-IVILLH-NH2 [Ac-IVILLH-NH2] gave an IC50 greater than 334 µM.
Ac-IVILLI-NH2 [Ac-IVILLI-NH2] showed an IC50 of 35.9 µM.
Compound Ac-IVILLK-NH2 [Ac-IVILLK-NH2] has an IC50 greater than 338 µM.
Ac-IVILLL-NH2 [Ac-IVILLL-NH2] gave an IC50 of 123 µM.
Ac-IVILLM-NH2 [Ac-IVILLM-NH2] showed an IC50 of 27 µM.
Work on Ac-IVILLN-NH2 [Ac-IVILLN-NH2] yielded an IC50 of 17.9 µM.
Work on Ac-IVILLP-NH2 [Ac-IVILLP-NH2] yielded an IC50 of 36.7 µM.
Work on Ac-IVILLQ-NH2 [Ac-IVILLQ-NH2] yielded an IC50 of 12.2 µM.
In the case of Ac-IVILLR-NH2 [Ac-IVILLR-NH2], the IC50 is reported as greater than 326 µM.
Ac-IVILLS-NH2 [Ac-IVILLS-NH2] showed an IC50 of 21.5 µM.
Work on Ac-IVILLT-NH2 [Ac-IVILLT-NH2] yielded an IC50 of 25.3 µM.
Ac-IVILLV-NH2 [Ac-IVILLV-NH2] showed an IC50 of 98.6 µM.
In the case of Ac-IVILLW-NH2 [Ac-IVILLW-NH2], the IC50 is reported as 6.27 µM.
Ac-IVILLY-NH2 [Ac-IVILLY-NH2] gave an IC50 of 12.9 µM.
Ac-IVILTA-NH2 [Ac-IVILTA-NH2] showed an IC50 of 19.4 µM.
Compound Ac-IVILTC-NH2 [Ac-IVILTC-NH2] has an IC50 of 27.1 µM.
In the case of Ac-IVILTE-NH2 [Ac-IVILTE-NH2], the IC50 is reported as 33 µM.
Compound Ac-IVILTF-NH2 [Ac-IVILTF-NH2] has an IC50 of 13.4 µM.
Work on Ac-IVILTG-NH2 [Ac-IVILTG-NH2] yielded an IC50 of 33.5 µM.
With Ac-IVILTH-NH2 [Ac-IVILTH-NH2] the IC50 was 76.1 µM.
For Ac-IVILTI-NH2 [Ac-IVILTI-NH2], the IC50 was greater than 351 µM.
Ac-IVILTK-NH2 [Ac-IVILTK-NH2] was tested, and the IC50 was greater than 344 µM.
Work on Ac-IVILTL-NH2 [Ac-IVILTL-NH2] yielded an IC50 of 14 µM.
Ac-IVILTM-NH2 [Ac-IVILTM-NH2] gave an IC50 of 12.3 µM.
Ac-IVILTN-NH2 [Ac-IVILTN-NH2] gave an IC50 of 19.6 µM.
In the case of Ac-IVILTP-NH2 [Ac-IVILTP-NH2], the IC50 is reported as 70.4 µM.
For Ac-IVILTQ-NH2 [Ac-IVILTQ-NH2], the IC50 was 15.1 µM.
Ac-IVILTR-NH2 [Ac-IVILTR-NH2] showed an IC50 greater than 331 µM.
In the case of Ac-IVILTS-NH2 [Ac-IVILTS-NH2], the IC50 is reported as 52.5 µM.
For Ac-IVILTT-NH2 [Ac-IVILTT-NH2], the IC50 was 62.9 µM.
Ac-IVILTV-NH2 [Ac-IVILTV-NH2] was tested, and the IC50 was 30.1 µM.
Ac-IVILTW-NH2 [Ac-IVILTW-NH2] was tested, and the IC50 was 14 µM.
Ac-IVILTY-NH2 [Ac-IVILTY-NH2] gave an IC50 of 23.6 µM.
Ac-MILWIE-NH2 [Ac-MILWIE-NH2] showed an IC50 of 13 µM.
Compound Ac-VIQQFV-NH2 [Ac-VIQQFV-NH2] has an IC50 of 20.7 µM.
With Ac-WIQIFI-NH2 [Ac-WIQIFI-NH2] the IC50 was 25.6 µM.
In the case of DDEITF-NH2 [DDEITF-NH2], the IC50 is reported as 1630 µM.
NDEIVF-NH2 [NDEIVF-NH2] gave an IC50 of 853 µM.
Compound NDEIVI-NH2 [NDEIVI-NH2] has an IC50 of 444 µM.
NEEIVF-NH2 [NEEIVF-NH2] was tested, and the IC50 was 1210 µM.
NEEIVI-NH2 [NEEIVI-NH2] gave an IC50 of 509 µM.

These compounds were tested on Staphylococcus aureus ATCC 29213 (assay: not given). Conditions: Tables 6-9.
For `NCCCC[C@H](NC(=O)OCC1c2ccccc2-c2ccccc21)C(=O)N[C@@H](Cc1c[nH]c2ccccc12)C(=O)N[C@@H](Cc1ccc(O)cc1)C(=O)N[C@H](CS)C(N)=O` [(KFmoc)WYc-NH2] (Fmoc-KWY[dC]-NH2), the “IC50 against S. aureus” value was 21 µg/mL (≈ 25.6 µM).
`CC[C@@H](C)[C@@H](NC(=O)[C@@H](Cc1ccccc1)NC(=O)[C@H](Cc1c[nH]c2ccccc12)NC(=O)[C@H](CCCCN)NC(=O)OCC1c2ccccc2-c2ccccc21)C(N)=O` [(KFmoc)Wfi-NH2] (Fmoc-KW[dF][dI]-NH2) was tested, and the “IC50 against S. aureus” value was 4 µg/mL (≈ 4.91 µM).
In the case of `NCCCC[C@H](NC(=O)OCC1c2ccccc2-c2ccccc21)C(=O)N[C@@H](Cc1c[nH]c2ccccc12)C(=O)N[C@H](Cc1ccccc1)C(=O)N[C@H](Cc1ccc(O)cc1)C(N)=O` [(KFmoc)Wfy-NH2] (Fmoc-KW[dF][dY]-NH2), the “IC50 against S. aureus” value is reported as 15 µg/mL (≈ 17.4 µM).

Same assay, conditions: Tables 7-9, lower parts (unnatural amino acids)
In the case of (KFmoc)Wf(7aHa)-NH2, the “IC50 against S. aureus” value is reported as 7 μg/m.
For (KFmoc)Wf(Cys[ACM])-NH2, the “IC50 against S. aureus” value was 18 μg/m.

The compounds below were run on Streptococcus sanguis ATCC 10556 (assay: not given). Conditions: Tables 10-13.
For `NCCCC[C@H](NC(=O)OCC1c2ccccc2-c2ccccc21)C(=O)N[C@@H](Cc1c[nH]c2ccccc12)C(=O)N[C@@H](Cc1ccc(O)cc1)C(=O)N[C@H](CS)C(N)=O` [(KFmoc)WYc-NH2] (Fmoc-KWY[dC]-NH2), the “IC50 against S. sanguis” value was 42 µg/mL (≈ 51.2 µM).
For `CC[C@@H](C)[C@@H](NC(=O)[C@@H](Cc1ccccc1)NC(=O)[C@H](Cc1c[nH]c2ccccc12)NC(=O)[C@H](CCCCN)NC(=O)OCC1c2ccccc2-c2ccccc21)C(N)=O` [(KFmoc)Wfi-NH2] (Fmoc-KW[dF][dI]-NH2), the “IC50 against S. sanguis” value was 4 µg/mL (≈ 4.91 µM).
In the case of `NCCCC[C@H](NC(=O)OCC1c2ccccc2-c2ccccc21)C(=O)N[C@@H](Cc1c[nH]c2ccccc12)C(=O)N[C@H](Cc1ccccc1)C(=O)N[C@H](Cc1ccc(O)cc1)C(N)=O` [(KFmoc)Wfy-NH2] (Fmoc-KW[dF][dY]-NH2), the “IC50 against S. sanguis” value is reported as 17 µg/mL (≈ 19.7 µM).

Same assay, conditions: Tables 11-13, lower parts (unnatural amino acids)
With (KFmoc)Wf(7aHa)-NH2 the “IC50 against S. sanguis” value was 10 μg/m.
In the case of (KFmoc)Wf(Cys[ACM])-NH2, the “IC50 against S. sanguis” value is reported as 30 μg/m.
